{"source": "patent US8217013B2", "about": "“Polyene diester antibiotics” (priority 2007, dated 2012)", "key": {"Candida albicans": {"tested_on": "Candida albicans", "test": "Test of antibacterial activity in vitro (bacteria-inhibition zone)", "type": "cell-based", "conditions": "Candida albicans; for zone of inhibition at 1.4 µg/mL: 1.4 μg/ml after conversion, serum added (40% defibered sheep serum); for zone of inhibition at 2.8 µg/mL: 2.8 μg/ml after conversion, no serum"}, "Saccharomyces cerevisiae": {"tested_on": "Saccharomyces cerevisiae", "test": "Test of antibacterial activity in vitro (bacteria-inhibition zone)", "type": "cell-based", "conditions": "Saccharomyces cerevisiae; for zone of inhibition at 1.4 µg/mL: 1.4 μg/ml after conversion, serum added (40% defibered sheep serum); for zone of inhibition at 2.8 µg/mL: 2.8 μg/ml after conversion, no serum"}, "Candida mycoderma": {"tested_on": "Candida mycoderma", "test": "Test of antibacterial activity in vitro (bacteria-inhibition zone)", "type": "cell-based", "conditions": "for zone of inhibition at 1.4 µg/mL: 1.4 μg/ml after conversion, serum added (40% defibered sheep serum); for zone of inhibition at 2.8 µg/mL: 2.8 μg/ml after conversion, no serum"}, "most of the fungal": {"tested_on": "most of the fungal", "conditions": "for most of the fungal; cited from earlier work"}, "[1]": {"conditions": "study by Rutgers University; cited from earlier work"}, "esterase": {"tested_on": "esterase", "conditions": "cited from earlier work"}, "[2]": {"conditions": "0 h, read-out: diameter of the bacteria-inhibition zone, Candida albicans 0 h"}, "[3]": {"conditions": "6 h, read-out: diameter of the bacteria-inhibition zone, Candida albicans 6 h"}, "[4]": {"conditions": "24 h, read-out: diameter of the bacteria-inhibition zone, Candida albicans 24 h"}, "[5]": {"conditions": "48 h, read-out: diameter of the bacteria-inhibition zone, Candida albicans 48 h"}, "[6]": {"conditions": "0 h, read-out: diameter of the bacteria-inhibition zone, Saccharomyces cerevisiae 0 h"}, "[7]": {"conditions": "6 h, read-out: diameter of the bacteria-inhibition zone, Saccharomyces cerevisiae 6 h"}, "[8]": {"conditions": "24 h, read-out: diameter of the bacteria-inhibition zone, Saccharomyces cerevisiae 24 h"}, "[9]": {"conditions": "48 h, read-out: diameter of the bacteria-inhibition zone, Saccharomyces cerevisiae 48 h"}, "[10]": {"conditions": "0 h, read-out: diameter of the bacteria-inhibition zone, Candida mycoderma 0 h"}, "[11]": {"conditions": "6 h, read-out: diameter of the bacteria-inhibition zone, Candida mycoderma 6 h"}, "[12]": {"conditions": "24 h, read-out: diameter of the bacteria-inhibition zone, Candida mycoderma 24 h"}, "[13]": {"conditions": "48 h, read-out: diameter of the bacteria-inhibition zone, Candida mycoderma 48 h"}}, "note": "Read-outs that look alike come from different tables or passages of the source.", "data": [{"molecule": "C[C@@H]1[C@H](O)[C@@H](C)/C=C/C=C/C=C/C=C/C=C/C=C/C=C/[C@H](O[C@@H]2O[C@H](C)[C@@H](O)[C@H](N)[C@@H]2O)C[C@@H]2O[C@](O)(C[C@@H](O)C[C@@H](O)[C@H](O)CC[C@@H](O)C[C@@H](O)CC(=O)O[C@H]1C)C[C@H](O)[C@H]2C(=O)O", "note": "[amphotericin B, reference compound]", "values": [{"measurement": "zone of inhibition at 1.4 µg/mL", "setting": "Candida albicans; [2]", "value": "12 to 14", "unit": "mm"}, {"measurement": "zone of inhibition at 2.8 µg/mL", "setting": "Candida albicans; [2]", "value": "14 to 16", "unit": "mm"}, {"measurement": "zone of inhibition at 1.4 µg/mL", "setting": "Candida albicans; [3]", "value": "12 to 14", "unit": "mm"}, {"measurement": "zone of inhibition at 2.8 µg/mL", "setting": "Candida albicans; [3]", "value": "14 to 16", "unit": "mm"}, {"measurement": "zone of inhibition at 1.4 µg/mL", "setting": "Candida albicans; [4]", "value": "12 to 14", "unit": "mm"}, {"measurement": "zone of inhibition at 2.8 µg/mL", "setting": "Candida albicans; [4]", "value": "14 to 16", "unit": "mm"}, {"measurement": "zone of inhibition at 1.4 µg/mL", "setting": "Candida albicans; [5]", "value": "12 to 14", "unit": "mm"}, {"measurement": "zone of inhibition at 2.8 µg/mL", "setting": "Candida albicans; [5]", "value": "14 to 16", "unit": "mm"}, {"measurement": "zone of inhibition at 1.4 µg/mL", "setting": "Saccharomyces cerevisiae; [6]", "value": "14 to 16", "unit": "mm"}, {"measurement": "zone of inhibition at 2.8 µg/mL", "setting": "Saccharomyces cerevisiae; [6]", "value": "16 to 18", "unit": "mm"}, {"measurement": "zone of inhibition at 1.4 µg/mL", "setting": "Saccharomyces cerevisiae; [7]", "value": "14 to 16", "unit": "mm"}, {"measurement": "zone of inhibition at 2.8 µg/mL", "setting": "Saccharomyces cerevisiae; [7]", "value": "16 to 18", "unit": "mm"}, {"measurement": "zone of inhibition at 1.4 µg/mL", "setting": "Saccharomyces cerevisiae; [8]", "value": "14 to 16", "unit": "mm"}, {"measurement": "zone of inhibition at 2.8 µg/mL", "setting": "Saccharomyces cerevisiae; [8]", "value": "16 to 18", "unit": "mm"}, {"measurement": "zone of inhibition at 1.4 µg/mL", "setting": "Saccharomyces cerevisiae; [9]", "value": "14 to 16", "unit": "mm"}, {"measurement": "zone of inhibition at 2.8 µg/mL", "setting": "Saccharomyces cerevisiae; [9]", "value": "16 to 18", "unit": "mm"}, {"measurement": "zone of inhibition at 1.4 µg/mL", "setting": "Candida mycoderma; [10]", "value": "12 to 14", "unit": "mm"}, {"measurement": "zone of inhibition at 2.8 µg/mL", "setting": "Candida mycoderma; [10]", "value": "14 to 16", "unit": "mm"}, {"measurement": "zone of inhibition at 1.4 µg/mL", "setting": "Candida mycoderma; [11]", "value": "12 to 14", "unit": "mm"}, {"measurement": "zone of inhibition at 2.8 µg/mL", "setting": "Candida mycoderma; [11]", "value": "14 to 16", "unit": "mm"}, {"measurement": "zone of inhibition at 1.4 µg/mL", "setting": "Candida mycoderma; [12]", "value": "12 to 14", "unit": "mm"}, {"measurement": "zone of inhibition at 2.8 µg/mL", "setting": "Candida mycoderma; [12]", "value": "14 to 16", "unit": "mm"}, {"measurement": "zone of inhibition at 1.4 µg/mL", "setting": "Candida mycoderma; [13]", "value": "12 to 14", "unit": "mm"}, {"measurement": "zone of inhibition at 2.8 µg/mL", "setting": "Candida mycoderma; [13]", "value": "14 to 16", "unit": "mm"}, {"measurement": "minimum inhibitory concentration (MIC)", "setting": "most of the fungal", "value": "0.02 to 1", "unit": "µg/mL"}]}, {"molecule": "COC(=O)[C@H]1[C@@H]2C[C@@H](O[C@@H]3O[C@H](C)[C@@H](O)[C@H](N)[C@@H]3O)/C=C/C=C/C=C/C=C/C=C/C=C/C=C/[C@H](C)[C@@H](O)[C@@H](C)[C@H](C)OC(=O)C[C@H](O)C[C@H](O)CC[C@@H](O)[C@H](O)C[C@H](O)C[C@](O)(C[C@@H]1O)O2", "note": "[amphotericin methyl ester]", "values": [{"measurement": "toxicity", "setting": "[1]", "value": "toxicity was lowered"}, {"measurement": "hydrolysis by esterase in vivo", "setting": "esterase", "value": "cannot be hydrolyzed by esterase in vivo"}]}]}
